Data: article PMC10974622, “Hybrid Peptide-Alkoxyamine Drugs: A Strategy for the Development of a New Family of Antiplasmodial Drugs” (Molecules, 2024)
Read-outs that look alike come from different tables or passages of the source. *1 amine or outer side, *2 acyl side, *3 side chain or, on linkers, in order; H or OH if unused. Where a SMILES comes first, the peptide text is derived from it. [ ]: non-standard residue; d: D form. The star is where a group is joined. Suc = O=C(CCC(=O)[*:2])[*:1]; Boc = CC(C)(C)OC(=O)*; OBn = c1ccc(CO*)cc1

How the values were obtained:
[1] = test system: P. falciparum strain F32-ART (artemisinin-resistant); test: microbe, parasite or virus in culture; type: cell-based, Plasmodium falciparum; conditions: for Selectivity Index CC50/IC50: cytotoxicity (Vero cells)/antiplasmodial activity (F32-ART) ratio
Text: The antimalarial activity of peptide-alkoxyamine hybrids was first evaluated in the in vitro antiproliferative test (IC50) using the artemisinin-resistant strain F32-ART (Table 2, Table S1). The roles of the N-substitution of the alkoxyamine moiety (TEMPO- or DBNO-based, for example, A3L/A8L, line 1/line 10), of the configuration (L or D of the peptide, A3L/A3D, line 1/line 2), of the N-protection of the peptide (A3L/A4L or A5L, line 1/ lines 3 and 5) were examined. According to standard rules in the malaria field, only molecules having IC50 values below 1 μM were considered active.
The F32-ART (artemisinin-resistant) strain and the F32-TEM (artemisinin-sensitive strain) were cultured according to Trager and Jensen in RPMI 1640 medium (Fisher Scientific, Illkirch, France) supplemented with 5% human serum (Etablissement français du Sang, Toulouse, France) at 2% hematocrit with type O human blood (Etablissement français du Sang, Toulouse, France), 37 °C, and 5% CO2 in a humidified atmosphere.
(§1) IC50 values corresponding to 50% inhibition of P. falciparum growth were determined by SYBR Green assay, and the assessment of cytotoxicity was performed on Vero cells (cell line from the kidney of a normal adult African green monkey), as previously published. The selectivity index corresponded to the cytotoxicity/activity ratio.

in vitro = type: cell-based, African green monkey; conditions: Cytotoxicity CC50
Description: as §1

Vero cells = conditions: cited from earlier work
[2] = Kinetic analysis of alkoxyamine bond homolysis by EPR; type: physicochemical; conditions: Equation (2), A = 2.4 · 10^14 s^−1
Description: The kinetic homolysis for peptide-alkoxyamines reported in Table 1 was recorded in EPR using two solvents, tert-butylbenzene (t-BuPh) or an n-propanol:water (1:1, v:v) mixture. The growth of nitroxide was recorded in the presence of an alkyl radical scavenger, i.e., O2 here, to suppress the back reaction (kc in Scheme 4), as already reported.
Homolysis rate constants kd are given by Equation (1) ([nitroxide]∞ = [alkoxyamine]0 = 0.1 mM), and the subsequent activation energy values Ea are given by Equation (2), as follows:(1) lnnitroxide∞−nitroxidet/nitroxide∞=−kd·t (2) Ea=−RTlnkd/A

[3] = Plasmodium falciparum, F32, read-out: Antiplasmodial Activity IC50, strain F32-ART, SYBR Green assay, mean ± SEM of 3 to 6 experiments
[4] = read-out: Antiplasmodial Activity IC50, strain F32-ART, SYBR Green assay, mean ± SEM of 3 to 6 experiments
[5] = strain F32-ART, SYBR Green assay, mean ± SEM of 3 to 6 experiments, read-out: Antiplasmodial Activity IC50

| SMILES | CC50 (in vitro; African green monkey) | CC50 (Vero cells) | IC50 [1, 5] | also measured |
| --- | --- | --- | --- | --- |
| CC(ON1C(C)(C)CCCC1(C)C)c1ccc(NC(=O)[C@@H](Cc2ccccc2)NC(=O)[C@H](NC(=O)[C@@H](Cc2ccccc2)NC(=O)OC(C)(C)C)C(C)C)cc1 (stereo partly shown) [A3D] | > 50 µM | – | – | IC50 [1, 3]: > 50 µM |
| CC(ON1C(C)(C)CCCC1(C)C)c1ccc(NC(=O)[C@@H](Cc2ccccc2)NC(=O)[C@H](NC(=O)[C@H](N)Cc2ccccc2)C(C)C)cc1 (stereo partly shown) [A5D] | – | – | – | Selectivity Index CC50/IC50 [1]: 1.0; IC50 [1, 4]: 2.25 ± 0.17 µM |
| CC(ON1C(C)(C)CCCC1(C)C)c1ccc(NC(=O)[C@H](Cc2ccccc2)NC(=O)[C@@H](NC(=O)[C@H](Cc2ccccc2)NC(=O)CCC(=O)OCc2ccccc2)C(C)C)cc1 (stereo partly shown) [A6L] | – | > 50 µM | – | IC50 [1, 3]: 7 µM; Selectivity Index CC50/IC50 [1]: >6.9; IC50 [1, 4]: 7.2 µM |
| CC(ON(C(C)(C)C)C(C)(C)C)c1ccc(NC(=O)[C@@H](Cc2ccccc2)NC(=O)[C@@H](NC(=O)[C@H](Cc2ccccc2)NC(=O)OC(C)(C)C)C(C)C)cc1 (stereo partly drawn) [A8DL] | > 50 µM | – | – | IC50 [1, 3]: 0.87 ± 0.04 µM; Selectivity Index CC50/IC50 [1]: >57; activation energy Ea ([2]; in t-BuPh): 28.51 kcal/mol; activation energy Ea ([2]; in water/n-PrOH 1/1 v/v): 28.3 kcal/mol |
| CC(ON(C(C)(C)C)C(C)(C)C)c1ccc(NC(=O)[C@@H](Cc2ccccc2)NC(=O)[C@H](NC(=O)[C@@H](Cc2ccccc2)NC(=O)OC(C)(C)C)C(C)C)cc1 (stereo partly shown) [A8D] | > 50 µM | – | – | IC50 [1, 3]: 50 µM; activation energy Ea ([2]; in t-BuPh): 28.94 kcal/mol; activation energy Ea ([2]; in water/n-PrOH 1/1 v/v): 28.32 kcal/mol |
| CC(ON(C(C)(C)C)C(C)(C)C)c1ccc(NC(=O)[C@@H](Cc2ccccc2)NC(=O)OC(C)(C)C)cc1 (stereo partly shown) [A9D] | – | – | – | activation energy Ea ([2]; in t-BuPh): 28.87 kcal/mol; activation energy Ea ([2]; in water/n-PrOH 1/1 v/v): 28.42 kcal/mol |
| CC(ON(C(C)(C)C)C(C)(C)C)c1ccc(NC(=O)[C@H](Cc2ccccc2)NC(=O)OC(C)(C)C)cc1 (stereo partly shown) [A9L] | – | – | – | activation energy Ea ([2]; in t-BuPh): 28.8 kcal/mol; activation energy Ea ([2]; in water/n-PrOH 1/1 v/v): 28.42 kcal/mol |
| C[C@@H]1CC[C@H]2[C@@H](C)C(=O)O[C@@H]3O[C@@]4(C)CC[C@@H]1[C@]32OO4 [ART, Artemisinin, reference compound] | > 50 µM | – | – | IC50 [1, 3]: 0.031 ± 0.006 µM; Selectivity Index CC50/IC50 [1]: >1500 |
| CC(ON(C(C)(C)C)C(C)(C)C)c1ccc(NC(=O)[C@@H](Cc2ccccc2)NC(=O)[C@H](NC(=O)[C@H](N)Cc2ccccc2)C(C)C)cc1 (stereo partly shown) [AW230] | 9 ± 1.2 µM | – | – | IC50 [1, 3]: 3.73 ± 0.26 µM |
| CC(C)[C@@H](NC(=O)[C@@H](Cc1ccccc1)NC(=O)OC(C)(C)C)C(=O)N[C@H](Cc1ccccc1)C(=O)OCc1ccccc1 [P6D, Boc-D-Phe-D-Val-D-Phe–OBn] (Boc-[dF]-[dV]-[dF]-OBn) | 3.2 ± 0.2 µM | – | > 50 µM | – |
| CC(C)[C@H](NC(=O)[C@H](Cc1ccccc1)NC(=O)OC(C)(C)C)C(=O)N[C@@H](Cc1ccccc1)C(=O)OCc1ccccc1 [P6L] (Boc-Phe-Val-Phe-OBn) | > 50 µM | – | > 50 µM | – |
| CC(C)[C@@H](NC(=O)[C@@H](Cc1ccccc1)NC(=O)OC(C)(C)C)C(=O)N[C@H](Cc1ccccc1)C(=O)O [P7D] (Boc-[dF]-[dV]-[dF]-OH) | > 50 µM | – | > 10 µM | – |
| CC(C)[C@H](NC(=O)[C@H](Cc1ccccc1)NC(=O)OC(C)(C)C)C(=O)N[C@@H](Cc1ccccc1)C(=O)O [P7L, Boc-L-Phe-L-Val-L-Phe–OH] (Boc-Phe-Val-Phe-OH) | – | > 50 µM | > 50 µM | – |
| CC(C)[C@@H](NC(=O)[C@H](N)Cc1ccccc1)C(=O)N[C@H](Cc1ccccc1)C(=O)OCc1ccccc1 [P8D] (H-[dF]-[dV]-[dF]-OBn) | > 50 µM | – | > 50 µM | – |
| CC(C)[C@H](NC(=O)[C@@H](N)Cc1ccccc1)C(=O)N[C@@H](Cc1ccccc1)C(=O)OCc1ccccc1 [P8L] (H-Phe-Val-Phe-OBn) | > 50 µM | – | > 50 µM | – |
| CC(C)[C@H](NC(=O)[C@H](Cc1ccccc1)NC(=O)CCC(=O)OCc1ccccc1)C(=O)N[C@@H](Cc1ccccc1)C(=O)OCc1ccccc1 [P9L, N-(Bn)succinyl-L-Phe-L-Val-L-Phe–OBn] | > 50 µM | – | > 50 µM | – |
| CC(C)[C@H](NC(=O)[C@H](Cc1ccccc1)NC(=O)CCC(=O)O)C(=O)N[C@@H](Cc1ccccc1)C(=O)O [P10L] (Suc-Phe-Val-Phe-OH) | – | > 50 µM | > 50 µM | – |
| CC(C)[C@@H](NC(=O)[C@H](N)Cc1ccccc1)C(=O)N[C@H](Cc1ccccc1)C(=O)O [P11D] (H-[dF]-[dV]-[dF]-OH; N-terminus and C-terminus assumed) | > 50 µM | – | – | – |
| CC(C)[C@H](NC(=O)[C@@H](N)Cc1ccccc1)C(=O)N[C@@H](Cc1ccccc1)C(=O)O [P11L] (H-Phe-Val-Phe-OH) | – | > 50 µM | > 10 µM | – |
| CC(C)[C@H](NC(=O)[C@H](Cc1ccccc1)NC(=O)CCC(=O)OCc1ccccc1)C(=O)N[C@@H](Cc1ccccc1)C(=O)O [P12L] | – | > 50 µM | > 10 µM | – |
| CC(C)[C@H](NC(=O)[C@@H](N)Cc1ccccc1)C(=O)N[C@@H](Cc1ccccc1)C(=O)O [P18L] (H-Phe-Val-Phe-OH) | – | > 25 µM | > 5 µM | – |
| CCc1ccc(NC(=O)[C@@H](Cc2ccccc2)NC(=O)[C@H](NC(=O)[C@@H](Cc2ccccc2)NC(=O)OC(C)(C)C)C(C)C)cc1 [P21D] | – | > 50 µM | > 50 µM | – |
| CCc1ccc(NC(=O)[C@H](Cc2ccccc2)NC(=O)[C@@H](NC(=O)[C@H](Cc2ccccc2)NC(=O)OC(C)(C)C)C(C)C)cc1 [P21L] | – | > 50 µM | > 50 µM | – |
| CCc1ccc(NC(=O)[C@@H](Cc2ccccc2)NC(=O)[C@H](NC(=O)[C@H](N)Cc2ccccc2)C(C)C)cc1 [P22D] | – | – | – | CC50 (in vitro): 11 ± 1.6 µM |
| CCc1ccc(NC(=O)[C@H](Cc2ccccc2)NC(=O)[C@@H](NC(=O)[C@@H](N)Cc2ccccc2)C(C)C)cc1 [P22L] | – | > 50 µM | > 10 µM | – |
| CCc1ccc(NC(=O)[C@H](Cc2ccccc2)NC(=O)[C@@H](NC(=O)[C@H](Cc2ccccc2)NC(=O)CCC(=O)OCc2ccccc2)C(C)C)cc1 [P23L] | – | > 50 µM | > 10 µM | – |
| CCc1ccc(NC(=O)[C@H](Cc2ccccc2)NC(=O)[C@@H](NC(=O)[C@H](Cc2ccccc2)NC(=O)CCC(=O)O)C(C)C)cc1 [P24L] | – | > 50 µM | > 10 µM | – |
| CC(ON1C(C)(C)CCCC1(C)C)c1ccccc1 (stereo not shown) [compound 4, reference compound] | – | – | – | IC50 [1, 3]: > 10 µM |
